# Test system: BIE (bovine intestinal epithelial) cells
# Assay: Inflammatory cytokine gene expression (RT-PCR) in LPS-stimulated bovine intestinal epithelial cells
# Type: cell-based
# Conditions: CNSL 30 ppm, aspirin 10 ppm, single agents
# Experimental: To evaluate the effect of endotoxin stimulated inflammatory reaction in the intestine, CNSL, vitamin K1 (FUJIFILM Wako Pure Chemical Corporation), or a combination thereof was added to bovine intestinal epithelial cells, the cells were cultured, and cytokine gene expression analysis was performed. Aspirin was used as a positive control. • 1. Seeding of BIE Cells • BIE (bovine intestinal epithelial) cells were seeded in a 12-well plate (manufactured by COSTAR) at 3.0×10^4 cells/well, and cultured in a CO2 incubator. • 2. […] A culture supernatant was collected, the wells were then washed with the sterilized PBS, and adherent cells were solubilized with TRIZOL, and harvested (at 9:00 p.m. on Day 5 and at 9:00 a.m. on Day 6) (12 hours or 24 hours) The sample in which TRIZOL (manufactured by INVITROGEN) is dissolved is partially purified by phenol-chloroform extraction and ethanol precipitation, and then dissolved in 10 μL of RNase-free water, and the O.D. (absorbance) of the resultant is measured with NanoDrop (manufactured by Thermo Fisher Scientific K.K.). […]
compound,measurement,value
"CC(=O)Oc1ccccc1C(=O)O [aspirin, acetylsalicylic acid]","action of the inflammation mediators, stimulated by endotoxin (LPS)",suppress

# Source: US20240252572A1, “ANTI-INFLAMMATORY AGENT FOR INTESTINAL CELLS OF DOMESTIC ANIMAL” (SDS BIOTECH K.K., priority 2021, published 2024)
